Laboratory results taken from patent US20020099073A1, “Modulators of protein tyrosine phosphatases (PTPases)” (priority 2000, published 2002).

Molecular target: T1, truncated form of PTP1B (corresponding to the first 321 amino acids) (Homo sapiens, UniProt P18031)
T1 construct: truncated form of PTP1B (corresponding to the first 321 amino acids); made in house; host or cells: E. coli
T1 sequence (P18031 1-321): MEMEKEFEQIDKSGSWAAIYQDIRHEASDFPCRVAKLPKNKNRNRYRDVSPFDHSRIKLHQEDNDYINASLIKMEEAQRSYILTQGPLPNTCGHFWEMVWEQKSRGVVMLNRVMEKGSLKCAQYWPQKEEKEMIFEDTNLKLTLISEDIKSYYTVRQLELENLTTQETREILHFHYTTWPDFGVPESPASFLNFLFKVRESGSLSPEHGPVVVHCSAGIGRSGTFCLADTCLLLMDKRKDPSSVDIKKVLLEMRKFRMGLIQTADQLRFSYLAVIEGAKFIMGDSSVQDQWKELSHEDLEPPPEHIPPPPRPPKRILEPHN
Assay: Inhibition of PTP1B, p-nitrophenyl phosphate substrate
Format: biochemical
Details: substrate p-nitrophenyl phosphate 0.16 to 10 mM; 100 mM sodium acetate pH 5.5; 25° C. for 60 minutes; absorbance at 405 nm
Experimental: The compounds are evaluated for biological activity with a truncated form of PTP1B (corresponding to the first 321 amino acids), which was expressed in E. coli and purified to apparent homogeneity using published procedures well-known to those skilled in the art. The enzyme reactions are carried out using standard conditions essentially as described by Burke et al. (Biochemistry 35; 15989-15996 (1996)). The assay conditions are as follows. Appropriate concentrations of the compounds of the invention are added to the reaction mixtures containing different concentrations of the substrate, p-nitrophenyl phosphate (range: 0.16 to 10 mM—final assay concentration). The buffer used was 100 mM sodium acetate pH 5.5, 50 mM sodium chloride, 0.1% (w/v) bovine serum albumin and 5 mM dithiothreitol (total volume […]). The reaction was started by addition of the enzyme and carried out in microtiter plates at 25° C. for 60 minutes. The reactions are stopped by addition of NaOH. The enzyme activity was determined by measurement of the absorbance at 405 nm with appropriate corrections for absorbance at 405 nm of the compounds and p-nitrophenyl phosphate. The data are analyzed using nonlinear regression fit to classical Michaelis Menten enzyme kinetic models. Inhibition is expressed as Ki values in μM.

Compound	Ki [µM]
5-(Benzyloxycarbonylamino-methyl)-2-(oxalyl-amino)-4,5,6,7-tetrahydro-thieno[2,3-c]pyridine-3-carboxylic acid and 7-(benzyloxycarbonylamino-methyl)-2-(oxalyl-amino)-4,5,6,7-tetrahydro-thieno[2,3-c]pyridine-3-carboxylic Acid [Example 17]	1.5
COc1ccc(CN2Cc3sc(NC(=O)C(=O)O)c(C(=O)O)c3CC2CNC(=O)c2cc(-c3ccc(C)cc3)nc3ccc(Br)cc23)cc1 (centres unmarked) [Example 2, 5-(((6-Bromo-2-p-tolyl-quinoline-4-carbonyl)amino)methyl)-6-(4-methoxy-benzyl)-2-(oxalyl-amino)-4,5,6,7-tetrahydro-thieno[2,3-c]pyridine-3-carboxylic Acid]	100
COc1ccc(CN2Cc3sc(NC(=O)C(=O)O)c(C(=O)O)c3CC2CNC(=O)c2cc3cc(OCc4ccccc4)ccc3[nH]2)cc1 (centres unmarked) [Example 3, 5-(((5-Benzyloxy-1H-indole-2-carbonyl)amino)methyl)-6-(4-methoxy-benzyl)-2-(oxalyl-amino)-4,5,6,7-tetrahydro-thieno[2,3-c]pyridine-3-carboxylic Acid]	4.3
COc1ccc(CN2Cc3sc(NC(=O)C(=O)O)c(C(=O)O)c3CC2CNC(=O)c2nn(-c3ccccc3)nc2C)cc1 (centres unmarked) [Example 6, 6-(4-Methoxy-benzyl)-5-(((5-methyl-2-phenyl-2H-[1,2,3]triazole-4-carbonyl)-amino)methyl)-2-(oxalyl-amino)-4,5,6,7-tetrahydro-thieno[2,3-c]pyridine-3-carboxylic Acid]	20
CCOc1ccc(C(=O)NCC2Cc3c(sc(NC(=O)C(=O)O)c3C(=O)O)CN2)c(O)c1 (centres unmarked) [Example 10, 5-((4-Ethoxy-2-hydroxy-benzoylamino)methyl)-2-(oxalyl-amino)-4,5,6,7-tetrahydro-thieno[2,3-c]pyridine-3-carboxylic Acid]	0.34
Cc1nn(-c2ccccc2)nc1C(=O)NCC1Cc2c(sc(NC(=O)C(=O)O)c2C(=O)O)CN1 (centres unmarked) [Example 11, 5-(((5-Methyl-2-phenyl-2H-[1,2,3]triazole-4-carbonyl)amino]methyl)-2-(oxalyl-amino)-4,5,6,7-tetrahydro-thieno[2,3-c]pyridin-3-carboxylic Acid]	1.5
O=C(O)C(=O)Nc1sc2c(c1C(=O)O)CC(CNC(=O)c1cc3ccccc3[nH]1)NC2 (centres unmarked) [Example 14]	0.67
COc1ccc(CN2Cc3sc(NC(=O)C(=O)O)c(C(=O)O)c3CC2CNC(=O)c2cccc3ccccc23)cc1 (centres unmarked) [Example 16, 6-(4-Methoxybenzyl)-5-(((naphthalene-1-carbonyl)amino)methyl)-2-(oxalyl-amino)-4,5,6,7-tetrahydro-thieno[2,3-c]pyridine-3-carboxylic Acid]	20
O=C(O)C(=O)Nc1sc2c(c1C(=O)O)CC(CNC(=O)c1ccccc1O)NC2 (centres unmarked) [Example 18, 5-((2-Hydroxy-benzoylamino)-methyl)-2-(oxalyl-amino)-4,5,6,7-tetrahydro-thieno[2,3-c]pyridine-3-carboxylic Acid]	0.68
O=C(O)C(=O)Nc1sc2c(c1C(=O)O)CC(CNC(=O)c1cccc(O)c1)NC2 (centres unmarked) [Example 19, 5-((3-Hydroxy-benzoylamino)methyl)-2-(oxalyl-amino)-4,5,6,7-tetrahydro-thieno[2,3-c]Pyridine-3-carboxylic Acid]	0.95
O=C(O)C(=O)Nc1sc2c(c1C(=O)O)C[C@@H](CNC(=O)c1cc3ccccc3cc1O)NC2 [Example 24, 5-(S)-(((3-Hydroxy-naphthalene-2-carbonyl)amino)methyl)-2-(oxalyl-amino) 4,5,6,7-tetrahydro-thieno[2,3-c]pyridine-3-carboxylic Acid]	0.22
COc1ccc2cc(O)c(C(=O)NC[C@@H]3Cc4c(sc(NC(=O)C(=O)O)c4C(=O)O)CN3)cc2c1 [Example 25, 5-(S)-(((3-Hydroxy-7-methoxy-naphthalene-2-carbonyl)amino)methyl)-2-(oxalyl-amino)-4,5,6,7-tetrahydro-thieno[2,3-c]pyridine-3-carboxylic Acid]	0.21
CC(=O)Nc1ccc(S(=O)(=O)NC[C@H]2Cc3c(sc(NC(=O)C(=O)O)c3C(=O)O)CN2)cc1 [Example 28, 5-(R)-((4-Acetylamino-benzenesulfonylamino)methyl)-2-(oxalyl-amino)-4,5,6,7-tetrahydro-thieno[2,3-c]pyridine-3-carboxylic Acid]	3.5
CC(=O)Nc1ccc(S(=O)(=O)NC[C@@H]2Cc3c(sc(NC(=O)C(=O)O)c3C(=O)O)CN2)cc1 [Example 29, 5-(S)-((4-Acetylamino-benzenesulfonylamino)methyl)-2-(oxalyl-amino)-4,5,6,7-tetrahydro-thieno[2,3-c]pyridine-3-carboxylic Acid]	0.13

Further lines, results first:

Ki [µM]	Compound
0.52	O=C(O)C(=O)Nc1sc2c(c1C(=O)O)CC(CNC(=O)c1ccccc1)NC2 (centres unmarked) [Example 1, 5-(Benzoylamino-methyl)-2-(oxalyl-amino)-4,5,6,7-tetrahydro-thieno[2,3-c]Pyridine-3-carboxylic Acid]
3	COc1ccc(CN2Cc3sc(NC(=O)C(=O)O)c(C(=O)O)c3CC2CNC(=O)c2ccc(NC(=O)c3ccccc3)cc2)cc1 (centres unmarked) [Example 4]
0.25	O=C(O)C(=O)Nc1sc2c(c1C(=O)O)CC(CNC(=O)c1ccc(NC(=O)c3ccccc3)cc1)NC2 (centres unmarked) [Example 5, 5-((4-Benzoylamino-benzoylamino)methyl)-2-(oxalyl-amino)-4,5,6,7-tetrahydro-thieno[2,3-c]pyridine-3-carboxylic Acid]
0.22	O=C(O)C(=O)Nc1sc2c(c1C(=O)O)CC(CNC(=O)c1ccc(-c3ccccc3)cc1)NC2 (centres unmarked) [Example 9, 5-(((Biphenyl-4-carbonyl)amino)methyl)-2-(oxalyl-amino)-4,5,6,7-tetrahydro-thieno[2,3-c]pyridine-3-carboxylic Acid]
0.27	O=C(O)C(=O)Nc1sc2c(c1C(=O)O)C[C@@H](CNC(=O)c1cccc(Oc3ccccc3)c1)NC2 [Example 20, 2-(Oxalyl-amino)-5-(S)-((3-phenoxy-benzoylamino)methyl)-4,5,6,7-tetrahydro-thieno[2,3-c]pyridine-3-carboxylic Acid]
0.16	O=C(O)C(=O)Nc1sc2c(c1C(=O)O)C[C@@H](CNC(=O)c1ccc(NC(=O)c3ccccc3)cc1)NC2 [Example 21, 5-((4-Benzoylamino-benzoylamino)methyl)-2-(oxalyl-amino)-4,5,6,7-tetrahydro-thieno[2,3-c]pyridine-3-carboxylic Acid]
3.2	O=C(O)C(=O)Nc1sc2c(c1C(=O)O)C[C@H](CNC(=O)c1ccc(NC(=O)c3ccccc3)cc1)NC2 [Example 22, 5-(R)-((4-Benzoylamino-benzoylamino)methyl)-2-(oxalyl-amino)-4,5,6,7-tetrahydro-thieno[2,3-c]pyridine-3-carboxylic Acid]
0.15	O=C(O)C(=O)Nc1sc2c(c1C(=O)O)C[C@@H](CNC(=O)c1ccc3ccccc3c1O)NC2 [Example 23, 5-(S)-(((1-Hydroxy-naphthalene-2-carbonyl)amino)methyl)-2-(oxalyl-amino)-4,5,6,7-tetrahydro-thieno[2,3-c]pyridine-3-carboxylic Acid]
0.2	O=C(NC[C@@H]1Cc2c(sc(NC(=O)C(=O)O)c2C(=O)O)CN1)Nc1ccc(Oc2ccccc2)cc1 [Example 27, 2-(Oxalyl-amino)-5-(S)-(3-(4-phenoxy-phenyl)ureidomethyl)-4,5,6,7-tetrahydro-thieno[2,3-c]pyridin-3-carboxylic Acid]
